# Results from US20170368082A1, “FORMULATIONS OF BRINCIDOFOVIR” (priority 2016, published 2017).
# Experiment: Blood and plasma pharmacokinetics of total radioactivity after IV or oral [^14C]brincidofovir
# Assay type: in vivo, male Sprague Dawley and Long-Evans rats
# Method: The study utilized 4 groups of male SD rats (albino), and 3 groups of male LE rats (pigmented); a total of 39 rats. All animals were obtained from Hilltop Lab Animals, Inc. (Scottdale, Pa.). Rats weighed between 214 and 265 g at dosing. Rats in Groups 1, 2, 3, and 4 were administered a single 2-hour (h) IV infusion of [^14C]brincidofovir at a target dose of 15 mg/kg. Rats in Group 5 were administered a single 2-h IV infusion of [^14C]brincidofovir at a target dose of 2 mg/kg. Rats in Group 6, and 7 were administered a single oral gavage administration of [^14C]brincidofovir at a target dose of 15 mg/kg. Three dosing formulations (one for high dose IV, one for low dose IV, and one for PO dose) were prepared at QPS on the day of dosing. The IV formulation for Groups 1, 2, 3, and 4 contained a vehicle of 10 mM sodium phosphate buffer in 5% dextrose solution at pH 8.0(±0.1). The IV formulation for Group 5 contained a vehicle of 16 mM sodium phosphate buffer in 5% dextrose solution at pH 8.0(±0.1), and the PO dosing formulation contained a vehicle of 12.5 mM sodium phosphate buffer at pH 8.0(±0.1). The IV dose formulation for Group 5 and the PO dose formulation for Groups 6 and 7 contained higher concentration of buffer so that the final buffer concentration was approximately 10 mM in all dose formulations.
# Blood was collected from each animal in Group 2 (IV infusion) for plasma and blood analysis at the times listed below.
# Terminal blood samples were collected by cardiac puncture into pre-labeled blood collection tubes that contained K2EDTA as an anticoagulant. A terminal sample (N=1 per time point) was collected at 0.5, 1, 2, 4, 8, 24, and 72 h after initiation of infusion and the volume was not limited. Triplicate weighed aliquots of blood (0.100 g) were removed and analyzed for total radioactivity using combustion followed by LSC. Blood aliquots were maintained at approximately 4° C. until analysis. The remaining blood samples were maintained on wet ice (approximately 4° C.) and then centrifuged to obtain plasma within 1 h of the blood collection time. Centrifuge settings were recorded in the study notebook. Duplicate aliquots of plasma (0.050 mL) were analyzed for radioactivity using direct counting by LSC, and residual plasma was stored at approximately −70° C. and was saved for possible future analysis under a separate study protocol. Residual red blood cells and the animal carcasses of Group 2 rats were discarded as radioactive waste.
# Each rat was deeply anesthetized via isoflurane anesthesia, a blood sample was collected by cardiocentesis (approximately 2 mL) into tubes that contained K2EDTA as the anticoagulant, and the rat was euthanized by being frozen in a hexane/solid carbon dioxide bath for at least 15 min. The blood samples were maintained on wet ice (approximately 4° C.) and then centrifuged to obtain plasma within 1 h of the blood collection time. Centrifuge settings were recorded in the study notebook. Duplicate aliquots of plasma (0.050 mL) were analyzed for radioactivity using direct counting by LSC, and residual plasma was stored at approximately −70° C. and was saved for possible future analysis under a separate study protocol. Residual red blood cells were discarded as radioactive waste.
# Triplicate weighed aliquots (˜0.100 g) of blood aliquots (Group 2 only) were combusted in the Packard Sample Oxidizer, followed by LSC analysis.
# Urine (0.300 mL), and plasma (0.050 mL) specimens were thawed, if necessary, then aliquoted in duplicate by volume and analyzed by LSC. Volumes or weights of sample aliquots were documented in the study records. Ultima Gold scintillation fluid (5 mL, PerkinElmer) was added to each urine, and plasma aliquot, aliquot were mixed thoroughly, and then analyzed by LSC for radioactivity.
# [1] = Plasma (LSC), PO 15 mg/kg, Group 7
# [2] = Plasma (by LSC), 15 mg/kg, Group 7 vs Group 4
# [3] = 0.5 h, SD rats Group 2, 15 mg/kg IV
# [4] = 1 h, SD rats Group 2, 15 mg/kg IV
# [5] = 2 h, SD rats Group 2, 15 mg/kg IV
# [6] = 4 h, SD rats Group 2, 15 mg/kg IV
# [7] = 8 h, SD rats Group 2, 15 mg/kg IV
# [8] = 24 h, SD rats Group 2, 15 mg/kg IV
# [9] = 72 h, SD rats Group 2, 15 mg/kg IV
# [10] = Blood, SD rats Group 2, 15 mg/kg IV
# [11] = Plasma, SD rats Group 2, 15 mg/kg IV
# [12] = SD rats Group 2, 15 mg/kg 2-h IV
structure (smiles),measurement,setting,value
CCCCCCCCCCCCCCCCOCCCOP(=O)(O)CO[C@H](CO)Cn1ccc(N)nc1=O [[14C]brincidofovir],AUCall,[1],22.3885 μg equiv · h/g
same,Tmax,[1],8 h
CCCCCCCCCCCCCCCCOCCCOP(=O)(O)CO[C@H](CO)Cn1ccc(N)nc1=O [[^14C] brincidofovir],AUCall,[1],22.3885 μg equiv · h/g
same,AUCall Ratio (PO/IV),[2],0.62
same,Cmax Ratio (PO/IV),[2],0.30
same,AUCall,"Plasma (by LSC), 2 h IV infusion 15 mg/kg, Group 4",36.3690 μg equiv · h/g
same,Tissue Concentration (168 h),"Plasma (by LSC), 2 h IV infusion 15 mg/kg, Group 4, LLOQ 0.036",BQL
same,Tissue Concentration (168 h),"Plasma (by LSC), PO 15 mg/kg, Group 7, LLOQ 0.034",BQL
CCCCCCCCCCCCCCCCOCCCOP(=O)(O)CO[C@H](CO)Cn1ccc(N)nc1=O [[^14C]brincidofovir],Plasma t1/2,15 mg/kg PO,approximately 5 h
same,Blood Concentration,[3],1.666 μg equiv/mL
same,Blood to Plasma Ratio,[3],0.65
same,Plasma Concentration,[3],2.557 µg/mL
same,Blood Concentration,[4],3.017 μg equiv/mL
same,Blood to Plasma Ratio,[4],0.65
same,Plasma Concentration,[4],4.609 µg/mL
same,Blood Concentration,[5],6.393 μg equiv/mL
same,Blood to Plasma Ratio,[5],0.62
same,Plasma Concentration,[5],10.297 µg/mL
same,Blood Concentration,[6],3.845 μg equiv/mL
same,Blood to Plasma Ratio,[6],0.72
same,Plasma Concentration,[6],5.363 µg/mL
same,Blood Concentration,[7],1.584 μg equiv/mL
same,Blood to Plasma Ratio,[7],0.81
same,Plasma Concentration,[7],1.961 µg/mL
same,Blood Concentration,[8],0.294 μg equiv/mL
same,Blood to Plasma Ratio,[8],1.26
same,Plasma Concentration,[8],0.234 µg/mL
same,Blood Concentration,[9],0.057 μg equiv/mL
same,Blood to Plasma Ratio,[9],1.27
same,Plasma Concentration,[9],0.045 µg/mL
same,Blood to Plasma Ratio,"72 hours, 2 mg/kg IV",1.42
same,Blood to Plasma Ratio,"72 hours, 15 mg/kg IV",3.06
same,AUCall,[10],50.836 μg equiv-h/mL
same,AUCinf—obs,[10],52.028 μg equiv-h/mL
same,AUClast,[10],50.836 μg equiv-h/mL
same,Cmax,[10],6.393 μg equiv/mL
same,Tmax,[10],2 h
same,t1/2,[10],14.5 h
same,Blood to Plasma Ratio,"Group 2 SD rats, 24 h",1.26
same,Blood to Plasma Ratio,"Group 2 SD rats, 72 h",1.27
same,Blood:Plasma Ratio,"Group 3/SD, IV 15 mg/kg, 2 h",0.96
same,Blood:Plasma Ratio,"Group 3/SD, IV 15 mg/kg, 24 h",1.23
same,Blood:Plasma Ratio,"Group 4/LE, IV 15 mg/kg, 1 h",1.10
same,Blood:Plasma Ratio,"Group 4/LE, IV 15 mg/kg, 2 h",1.08
same,Blood:Plasma Ratio,"Group 4/LE, IV 15 mg/kg, 4 h",0.92
same,Blood:Plasma Ratio,"Group 4/LE, IV 15 mg/kg, 8 h",1.39
same,Blood:Plasma Ratio,"Group 4/LE, IV 15 mg/kg, 24 h",1.46
same,Blood:Plasma Ratio,"Group 4/LE, IV 15 mg/kg, 72 h",3.06
same,Blood:Plasma Ratio,"Group 5/LE, IV 2 mg/kg, 2 h",0.89
same,Blood:Plasma Ratio,"Group 5/LE, IV 2 mg/kg, 8 h",1.03
same,Blood:Plasma Ratio,"Group 5/LE, IV 2 mg/kg, 24 h",1.41
same,Blood:Plasma Ratio,"Group 5/LE, IV 2 mg/kg, 72 h",1.25
same,Blood:Plasma Ratio,"Group 6/SD, PO 15 mg/kg, 2 h",0.64
same,Blood:Plasma Ratio,"Group 6/SD, PO 15 mg/kg, 24 h",0.78
same,Blood:Plasma Ratio,"Group 7/LE, PO 15 mg/kg, 1 h",1.13
same,Blood:Plasma Ratio,"Group 7/LE, PO 15 mg/kg, 2 h",0.98
same,Blood:Plasma Ratio,"Group 7/LE, PO 15 mg/kg, 4 h",0.80
same,Blood:Plasma Ratio,"Group 7/LE, PO 15 mg/kg, 8 h",0.76
same,Blood:Plasma Ratio,"Group 7/LE, PO 15 mg/kg, 24 h",0.87
same,Blood to Plasma Ratio,"IV infusion, 1 to 24 hours after start",0.89-1.46
same,"Blood to plasma ratio, median",IV or oral,1.00
same,Plasma AUClast,"LE rats, 15 mg/kg PO",21.0 μg equiv·h/mL
same,Plasma Cmax of total radioactivity,"LE rats, 15 mg/kg PO",1.5 μg equiv/mL
same,Plasma Tmax,"LE rats, 15 mg/kg PO",8 h
same,Plasma concentration at 24 h post-dose,"LE rats, 15 mg/kg PO",0.180 μg equiv/mL
same,Blood to Plasma Ratio,"PO, LE rats, 1 h to 24 h",0.76-1.13
same,AUCall,[11],64.448 μg equiv-h/mL
same,AUCinf—obs,[11],65.292 μg equiv-h/mL
same,AUClast,[11],64.448 μg equiv-h/mL
same,Cmax,[11],10.297 μg equiv/mL
same,Tmax,[11],2 h
same,t1/2,[11],13.0 h
same,Plasma AUClast,[12],64.4 μg equiv·h/mL
same,Plasma Cmax of total radioactivity,[12],10.3 μg equiv/mL
same,Plasma Tmax,[12],2 h
same,Plasma concentration at 72 h post-dose,[12],0.045 μg equiv/mL
same,Plasma t1/2,[12],13.0 h
same,Oral bioavailability of radioactivity (AUCall PO/AUCall IV),blood,48%
same,Radioactive bioavailability,oral,approximately 50%
same,Blood:Plasma Ratio,"oral administration, up to 24 h (Groups 6-7)",0.64-1.13
same,Oral bioavailability of radioactivity (AUCall PO/AUCall IV),plasma,61%
